These results are taken from ChEMBL document CHEMBL4028827, “Discovery of indazole aldosterone synthase (CYP11B2) inhibitors as potential treatments for hypertension” (Bioorg Med Chem Lett, 2017).

As usually defined, the IC50 is the concentration needed to halve the response being measured. The bioavailability is the share of a dose that reaches the circulation, judged against a reference dose that is usually intravenous.

Each structure is given as a SMILES string.

One data set has as its target T1, Steroid 21-hydroxylase (Homo sapiens, UniProt P08686).
T1 sequence (P08686 whole entry): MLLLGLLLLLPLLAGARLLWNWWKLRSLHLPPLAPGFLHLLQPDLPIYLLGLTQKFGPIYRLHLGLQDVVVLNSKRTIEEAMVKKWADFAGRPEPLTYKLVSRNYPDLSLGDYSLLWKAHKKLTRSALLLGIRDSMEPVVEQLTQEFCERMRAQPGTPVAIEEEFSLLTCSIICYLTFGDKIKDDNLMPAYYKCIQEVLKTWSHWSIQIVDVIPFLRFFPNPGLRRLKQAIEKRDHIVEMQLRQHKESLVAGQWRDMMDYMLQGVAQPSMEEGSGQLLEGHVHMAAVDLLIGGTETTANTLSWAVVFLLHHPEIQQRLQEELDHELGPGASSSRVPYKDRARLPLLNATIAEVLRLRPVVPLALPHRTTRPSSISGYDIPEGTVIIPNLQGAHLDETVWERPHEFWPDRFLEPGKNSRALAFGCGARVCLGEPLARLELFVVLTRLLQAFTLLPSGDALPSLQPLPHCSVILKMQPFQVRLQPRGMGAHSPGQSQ
As to the kind of experiment: Inhibition of human CYP21 expressed in African green monkey COS7 cells using […] as substrate preincubated for 1 hr followed by substrate addition measured for 3 hrs by HTRF assay. It counts as cell-based. (In general: TR-FRET usually uses a lanthanide donor and a delayed reading to cut background.)

Data set [1] deals with T2, Cytochrome P450 11B2, mitochondrial (Homo sapiens, UniProt P19099).
T2 sequence (P19099 whole entry): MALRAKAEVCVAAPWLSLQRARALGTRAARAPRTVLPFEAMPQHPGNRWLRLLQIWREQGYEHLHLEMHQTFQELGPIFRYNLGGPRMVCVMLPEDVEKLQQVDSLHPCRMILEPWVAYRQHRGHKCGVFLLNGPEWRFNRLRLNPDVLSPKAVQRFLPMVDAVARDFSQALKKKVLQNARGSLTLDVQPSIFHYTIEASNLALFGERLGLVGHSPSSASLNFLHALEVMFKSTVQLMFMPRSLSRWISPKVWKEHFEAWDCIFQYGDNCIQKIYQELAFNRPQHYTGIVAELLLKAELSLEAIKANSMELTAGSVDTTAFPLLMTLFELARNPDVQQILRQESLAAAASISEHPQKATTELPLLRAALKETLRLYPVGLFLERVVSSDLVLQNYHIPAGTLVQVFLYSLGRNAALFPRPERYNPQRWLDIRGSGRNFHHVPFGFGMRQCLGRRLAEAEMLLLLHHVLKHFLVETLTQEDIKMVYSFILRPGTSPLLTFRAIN
As to the kind of experiment: Inhibition of human CYP11B2-CLE9 expressed in Chinese hamster V79 cells using 11-deoxycorticosterone as substrate preincubated for 1 hr followed by substrate addition measured for 3 hrs by HTRF assay. It counts as cell-based.

The target in data set [2] is T3, Cytochrome P450 11B1, mitochondrial (Homo sapiens, UniProt P15538).
T3 sequence (P15538 whole entry): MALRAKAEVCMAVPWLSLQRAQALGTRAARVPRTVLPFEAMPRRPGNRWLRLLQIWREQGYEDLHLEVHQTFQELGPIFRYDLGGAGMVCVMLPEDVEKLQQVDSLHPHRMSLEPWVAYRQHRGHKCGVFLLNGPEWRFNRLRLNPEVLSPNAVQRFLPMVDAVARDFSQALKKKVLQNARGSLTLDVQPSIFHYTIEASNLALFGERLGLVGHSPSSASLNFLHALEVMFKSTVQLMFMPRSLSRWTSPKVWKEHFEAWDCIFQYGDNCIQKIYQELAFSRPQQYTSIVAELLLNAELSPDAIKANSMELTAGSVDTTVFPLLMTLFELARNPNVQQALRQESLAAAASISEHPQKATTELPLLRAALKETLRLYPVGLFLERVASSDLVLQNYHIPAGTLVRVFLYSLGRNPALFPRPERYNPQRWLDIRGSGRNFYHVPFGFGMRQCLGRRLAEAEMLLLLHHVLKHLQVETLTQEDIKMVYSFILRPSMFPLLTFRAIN
As to the kind of experiment: Inhibition of human CYP11B1-8C7 expressed in Chinese hamster V79 cells using 11-deoxycortisol as substrate preincubated for 1 hr followed by substrate addition measured for 3 hrs by HTRF assay. The format is ADME, cell-based.

Data set [3] can be described thus: Selectivity ratio of IC50 for hepatic CYP2C9 (unknown origin) to IC50 for human CYP11B2-CLE9 expressed in Chinese hamster V79 cells.
Data set [4] in a line: Oral bioavailability in Sprague-Dawley rat at 2 mg/kg administered via gavage by LC-MS/MS analysis. The note with it: in vivo. It counts as ADME, organism-based.
For data set [5], the target named is T4, Steroid 17-alpha-hydroxylase/17,20 lyase (Homo sapiens, UniProt P05093).
T4 sequence (P05093 whole entry): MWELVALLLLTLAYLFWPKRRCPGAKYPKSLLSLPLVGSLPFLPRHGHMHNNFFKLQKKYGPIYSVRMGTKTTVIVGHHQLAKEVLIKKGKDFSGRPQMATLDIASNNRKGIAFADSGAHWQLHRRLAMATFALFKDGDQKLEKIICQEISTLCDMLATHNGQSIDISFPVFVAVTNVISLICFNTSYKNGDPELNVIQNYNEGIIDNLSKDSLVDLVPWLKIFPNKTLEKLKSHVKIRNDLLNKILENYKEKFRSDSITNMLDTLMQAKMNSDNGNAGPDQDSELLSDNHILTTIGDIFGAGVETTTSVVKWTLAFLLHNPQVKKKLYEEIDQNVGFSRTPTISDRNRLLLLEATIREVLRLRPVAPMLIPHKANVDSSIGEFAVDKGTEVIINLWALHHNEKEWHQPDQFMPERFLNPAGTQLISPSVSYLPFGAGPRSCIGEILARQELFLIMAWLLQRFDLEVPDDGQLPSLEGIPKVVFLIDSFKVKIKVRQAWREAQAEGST
The experiment in a line: Inhibition of human CYP17 expressed in African green monkey COS7 cells using 17-hydroxypregnenolone as substrate preincubated for 1 hr followed by substrate addition measured after 3 hrs by EIA. The format is cell-based.

Data set [6] can be described thus: Intrinsic clearance in rat liver microsomes at […] preincubated for 10 mins followed by NADPH addition measured after 45 mins by LC-MS analysis. It counts as ADME, microsome. The settings on record: read-out: CLH.
Data set [7] can be described thus: Selectivity ratio of IC50 for human CYP11B1-8C7 expressed in Chinese hamster V79 cells to IC50 for human CYP11B2-CLE9 expressed in Chinese hamster V79 cells.

As to `CC(C)(O)c1cncc(-n2ncc3c(C(F)(F)F)cccc32)c1`, the IC50 at Steroid 21-hydroxylase was over 10000 nM; in data set [1], 2.2 to 2.24 nM; in data set [2], 98 to 98.3 nM; in data set [5] it was over 10000 nM. Moreover, the “Ratio IC50” value in data set [3] is on record as over 4000; in data set [7], 44. In data set [4], this compound displayed a bioavailability of 28%. The CLint scaled in data set [6] is under 20 mL/min/kg.
